# Where two headings read alike, the source gives them in different places.
# Legend:
# PKCα = target: T1, PKCα (Homo sapiens, UniProt P17252); assay: PKC competitive binding assay with [3H]-phorbol dibutyrate (PKCα)
# T1 construct: purchased Invitrogen
# Procedure: (§1) With a panel of compounds bearing diverse functionality at C13, we began to explore how these modifications affect PKC binding and biological function. Because an obvious prerequisite for PKC pathway involvement is binding to PKC, compounds were initially evaluated for PKC affinity in a cell-free competitive binding assay with tritiated phorbol dibutyrate ([^3H]-PDBu). Assays were performed with representative members of both the conventional (PKCα) and novel (PKCδ) PKC families. Subsequently, compounds were assayed for PKC isoform translocation in real time in living cells using an optical assay. Translocation to the plasma membrane is the hallmark of PKC activation[18],[57],[60] and therefore monitoring the subcellular localization of a PKCδ-GFP fusion protein via confocal microscopy offers a convenient method for determining whether a compound enters a cell and engages its PKC isoform target. Finally and of clinical significance, we also determined the effect of compounds on CD22 surface expression in vitro in NALM6 cells, an ALL cell line previously studied in connection with CD22-targeted CAR T cell therapy, and two additional lymphoma cell lines[11],[31],[65].
# (§2) PKC Binding Assay Protocol […]
# (§3) competition with 3H-phorbol-12,13-dibutyrate (3H-PDBu) as described below. This procedure entails a glass-fiber filtration method to determine bound radioligand.
# (§4) Preparation of PKC binding assay buffer
# (§5) To a 50 mL polypropylene tube was added Tris-HCl (pH 7.4, 1 M, 1 mL), KCl (1 M, 2 mL), CaCl2 (0.1 M, 30 μL), and bovine serum albumin (BSA, 40 mg, Sigma-Aldrich). This mixture was diluted to 20 mL with deionized H2O and mixed gently. The buffer was stored on ice until use. The final […]
# (§6) Supplementary Table1. PKC binding assay buffer composition.
# (§7) Preparation of phosphatidylserine (PS) vesicles
# (§8) For every two assays, 3.5 mg phosphatidylserine (Avanti Polar Lipids, porcine, 25 mg/mL CHCl3 solution) was concentrated by removing chloroform under a stream of nitrogen followed by reduced pressure. The solid PS was suspended as vesicles in freshly prepared PKC binding assay buffer (3.5 mL) by sonicating six times for 30 sec, with a 30 sec rest between sonications (Branson Sonifier 250, power = 2, 50% duty cycle). The resulting milky cloudy mixture (1 mg/mL) was stored […]
# (§9) Preparation of PKC isoform solution
# (§10) Assay PKC was prepared by dissolving a 4 μg aliquot of the indicated recombinant human PKC isoform (Invitrogen) into 11.6 mL of PKC binding assay buffer (this amount is sufficient for two assays). The diluted PKC was stored on ice for immediate use.
# (§11) Preparation of 3H-PDBu solution
# (§12) 3H-PDBu (American Radiolabeled Chemicals, Inc.; 1 mCi/mL acetone solution; specific activity: […]) was diluted 10-fold with DMSO. The resulting 500 nM stock solution was further diluted with DMSO to 30 nM.
# (§13) Preparation of analog compound dilutions
# (§14) Compound dilutions were prepared by serially diluting from a chosen "high" concentration by factors of 3 or 4. For each analog compound, seven concentrations were used to define the […]
# (§15) To a polypropylene tube was added 3.3 mL of 1 mg/mL PS vesicles solution, 11 mL of PKC isoform solution, and 1.1 mL of 30 nM 3H-PDBu solution were added. The resulting solution was vortexed to mix and stored on ice.
# (§16) PKC binding assay protocol
# (§17) - Glass-fiber filters (Whatman GF/B) were prepared by soaking them in a solution of aqueous polyethyleneimine (10% by vol, 18 mL) in deionized water (600 mL) for ≥1h.
# (§18) - 500 mL "rinsing buffer" of 20 mM Tris, pH 7.4 was cooled on ice for the duration of the incubation period and for the remainder of the assay.
# Triplicate data points were obtained for each analog concentration. For each data point, 280 μL of "Master Mix" Solution and 20 μL of analog compound at a specified concentration were added to a polypropylene tube. Non-specific 3H-PDBu binding was assessed in triplicate by substitution
# [1] = test system: CD22 surface expression in NALM6 cells; assay: CD22 surface expression in NALM6 cells (flow cytometry); type: cell-based, human
# Procedure: CD22 Surface Expression Protocol – NALM6 Cells […]
# unless otherwise noted below) at 37 ° C in an incubator (5% CO2). Cell cultures were maintained […]
# Cell suspension from a confluent T75 flask (Fisher) was transferred to a 15 mL falcon tube and centrifuged at 1100 rpm for 7 minutes. The supernatant was aspirated, and the cell pellet was […]
# Cells were counted using a Countess II Automated Cell
# 199 µL of this stock was added to 24 wells (enough for triplicate measurements for 8 different experimental conditions) in a 96-well plate. Dosing was […]
# each experiment. 1 µL of DMSO or the appropriate stock solution of compound in DMSO was added to each well. Cells were incubated for 24 hours, at which point the cell suspensions were transferred to 1.5 mL Eppendorf tubes and diluted with 1.0 mL of PBS (Hyclone, without Ca2+ or Mg2+). Samples were centrifuged at 2000 rpm for 5 min at RT. The supernatant was aspirated, […]
# Cells were sub-cultured between 2 […]
# surface expression was assayed by flow cytometry.
# Cells from one well were counted using a Countess II Automated Cell Counter (Fisher). ~200,000 – 300,000 cells from each well were added to 1.5 mL Eppendorf tubes containing PBS (final volume ~1.2 mL). The cell suspensions were centrifuged at 1500 rpm for 7 minutes at 4 °C. The supernatant was aspirated, and the cell pellet was resuspended in 99 µL of pre-chilled FACS […]
# buffer (0.5% w/v BSA in PBS). […]
# minutes. Samples were then diluted with an additional 1.0 mL of FACS buffer and centrifuged at 1500 rpm for 7 minutes at 4 °C. The supernatant was aspirated, the cell pellets were resuspended in 200 µL FACS buffer, and the resulting suspensions were transferred to FACS tubes (Fisher, […]
# Cells were stained with DAPI and CD22 surface expression was analyzed using the FACScan Analyzer at the Stanford Shared FACS Facility. Data analysis was performed using FlowJo and Microsoft Excel.
# PKC = PKC competitive binding assay, isoform not specified; set-up: species or system human
# Procedure: as §1, §2, §3, §4, §5, §6, §7, §8, §9, §10, §11, §12, §13, §14, §15, §16
# - Glass-fiber filters (Whatman GF/B) were prepared by soaking them in a solution of […]
# [2] = test system: CD22 surface expression in JB cells; assay: CD22 surface expression in JB cells (flow cytometry); conditions: 1 nM or 10 nM, 48 h, n = 6
# Procedure: (§19) Compound was washed out and cells were sub-cultured for the indicated times. […] CD22 surface expression was then assayed by flow cytometry (n = 3 biological replicates; data presented as mean values ± SE). c JB cells were incubated with 1 nM (blue bars) or 10 nM (orange bars) of compound for 48 h. CD22 surface expression was then assayed by flow cytometry (n = 6 biological replicates; data presented as mean values ± SE). d 2F7 cells were incubated with 1 nM (blue bars) or 10 nM (orange bars) of compound for 48 h. CD22 surface expression was then assayed by flow cytometry (n = 6 biological replicates; data presented as mean values ± SE).
# (§20) JB is an Epstein–Barr virus (EBV)-negative AIDS-lymphoma cell line originally grown out of a bone marrow sample derived from an HIV+ individual, which harbors the Burkitt lymphoma translocation[66]. 2F7 is an AIDS-associated non-Hodgkin’s lymphoma cell line of the Burkitt subtype, which is positive for EBV[67].
# (§21) AIDS-NHL cell lines were incubated in IF10 medium, consisting of IMDM
# (§22) medium (Life technologies) containing 10% fetal bovine serum (FBS, Omega Scientific), 100
# (§23) units/mL of penicillin, and 100 μg/ml of streptomycin (Invitrogen). Cells were incubated at 37 °C
# (§24) AIDS-NHL cells were cultured in a u-bottomed 96-well
# (§25) tissue culture plates with a cell density of 200,000 cells/well in a 200 μL volume of IF10 media
# (§26) were exposed to compound for the either 24 or 48 h before staining and flow cytometric analysis
# (§27) Cells in each well were washed with phosphate buffered saline (PBS) containing
# (§28) 2% FBS, then cells were centrifuged for 9 min at 233 xg and resuspended in 50 μL of a 1:1 dilution
# (§29) of phosphate buffered saline (PBS): Human AB serum (Sigma).
# (§30) cells were washed and fixed in 2% paraformaldehyde. Stained samples were stored at 4 °C.
# (§31) cytometry samples were analyzed using a FACSCelesta (BD Biosciences) flow cytometer and data
# (§32) were analyzed using FlowJo software (version 10).
# [3] = test system: CD22 surface expression in 2F7 cells; assay: CD22 surface expression in 2F7 cells (flow cytometry); conditions: 1 nM or 10 nM, 48 h, n = 6
# Procedure: as §19, §20, §21, §22, §23, §24, §25, §26, §27, §28, §29, §30, §31, §32
# PKCδ = target: T2, PKCδ (Homo sapiens, UniProt Q05655); assay: PKC competitive binding assay with [3H]-phorbol dibutyrate (PKCδ); conditions: cell-free, competition with [3H]-PDBu, PS vesicles
# T2 construct: purchased Invitrogen
# T2 sequence (Q05655 whole entry): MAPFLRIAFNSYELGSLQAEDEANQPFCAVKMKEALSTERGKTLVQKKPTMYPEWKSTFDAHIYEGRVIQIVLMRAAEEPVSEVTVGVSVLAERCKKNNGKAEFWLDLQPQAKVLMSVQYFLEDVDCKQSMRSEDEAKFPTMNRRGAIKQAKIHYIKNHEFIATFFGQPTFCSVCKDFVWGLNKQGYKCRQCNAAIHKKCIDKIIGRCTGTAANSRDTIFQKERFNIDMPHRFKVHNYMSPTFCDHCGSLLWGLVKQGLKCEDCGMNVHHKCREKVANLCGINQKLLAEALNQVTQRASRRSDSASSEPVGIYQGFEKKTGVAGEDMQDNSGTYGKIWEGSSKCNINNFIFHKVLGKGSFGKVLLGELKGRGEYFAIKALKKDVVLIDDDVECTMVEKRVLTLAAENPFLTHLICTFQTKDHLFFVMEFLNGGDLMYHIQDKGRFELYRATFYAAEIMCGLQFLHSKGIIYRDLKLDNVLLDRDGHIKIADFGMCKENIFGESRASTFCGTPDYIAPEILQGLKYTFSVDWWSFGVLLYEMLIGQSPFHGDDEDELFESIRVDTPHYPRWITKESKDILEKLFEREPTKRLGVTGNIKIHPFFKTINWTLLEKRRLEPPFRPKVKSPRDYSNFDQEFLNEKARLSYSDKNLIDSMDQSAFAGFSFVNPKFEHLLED
# Procedure: as §1, §2, §3, §4, §5, §6, §7, §8, §9
# Assay PKC was prepared by dissolving a 4 μg aliquot of the indicated recombinant human PKC isoform (Invitrogen) into 11.6 mL of PKC binding assay buffer (this amount is sufficient for two assays). The diluted PKC was stored on ice for immediate use. […]
# μCi/mmol) was diluted 10-fold with DMSO. The resulting 500 nM stock solution was further diluted with DMSO to 30 nM.
# as §13, §14, §15, §16, §17, §18
# Triplicate data points were obtained for each analog concentration. For each data point, 280 μL of "Master Mix" Solution and 20 μL of analog compound at a specified concentration were added to a polypropylene tube. Non-specific 3H-PDBu binding was assessed in triplicate by substitution […]
# μM). Maximal 3H-PDBu binding was assessed in triplicate by substitution of the analog compound with 20 μL DMSO. The solutions were vortexed to mix, incubated at 37 °C for 10 min, and […]
# PKCδ-GFP fusion protein = target: T3, PKCδ-GFP fusion protein (Homo sapiens, UniProt Q05655); assay: PKCδ-GFP translocation assay in living CHO-k1 cells (confocal microscopy); type: cell-based, Chinese hamster; conditions: for minimum effective concentration required to induce translocation of PKC-GFP to the membrane: tested at 200 and 1000 nM
# T3 construct: expressed in transfected cells; host or cells: CHO-k1 (Chinese hamster ovary, ATCC)
# T3 sequence (Q05655 whole entry, the tested form may be a part): as the sequence (Q05655 whole entry) above
# Procedure: as §1
# Scale bar represents 25 μm. Experiments performed in n = 3 biological replicates. b–d Cytosolic fluorescence normalized to t = 0 (time immediately prior to addition of compound to media) and plotted against time. Error bars excluded for clarity (data presented as the mean of n = 3 biological replicates). Individual curves with error bars included in Supplementary Information.
# PKCδ-GFP Translocation Assay Protocol
# Chinese hamster ovary factor K1 (CHO-k1, ATCC) cells were cultured in F-12 Kaighn’s media (Hyclone, 10% fetal bovine serum, 1% penicillin/streptomycin added, reffered to as F-12 +/+ below) at 37 ° C in an incubator (5% CO2). Cell cultures were maintained by splitting cells 1:3 when they reached ~75-100% confluence (every 2-3 days) as follows:
# (Gibco) was used to remove the cells from the culture flask (T75, Falcon). 1 mL of the cell suspension was then added to 9 mL of fresh F-12 +/+ and the sample was sub-cultured until reaching confluence (~2-3 days).
# Cells were counted using a Countess II Automated Cell Counter (Fisher). The cell suspension was diluted to 240,000 cells/mL with fresh F-12 +/+ and 2.5 mL of this diluted stock was added to one well in a 6-well plate. The cells were then cultured for 24 hours.
# Cells were transfected with Lipofectamine 2000 reagent (Invitrogen) or DA 13:11 at a 10:1 charge […]
# F-12 +/+ was aspirated and cells were washed with F-12 -/-. 2 mL of fresh F-12 -/- was then added to each well, taking care not to disturb adherent cells. For each well of CHO-k1 cells, 12.5 µL Lipofectamine 2000 reagent (Invitrogen) was added to 250 µL Opti-MEM reduced serum media (Invitrogen) in a polypropylene tube and incubated for 20 minutes at RT. Meanwhile, for each well, 4 µg of PKCδ-GFP pDNA and 250 µL Opti-MEM reduced serum media was added to a separate polypropylene tube. 250 µL of the Lipofectamine 2000 suspension was added to the DNA suspension and the solution incubated for 30 minutes at RT. 500 µL of the Lipofectamine/DNA suspension was added to the respective wells of the 6-well plate. The cells were then incubated at 37 ° C (5% CO2) for ~24 hrs.
# F-12 +/+ was aspirated and cells were washed with F-12 -/-. 2.4 mL of fresh F-12 -/- was then added to each well, taking care not to disturb adherent cells. A 4 µg aliquot of PKCδ-GFP pDNA was added to PBS (pH 5.5, final volume 100 µL). 5.6 µL of DA 13:11 (2 mM stock in DMSO) was then added to the DNA solution, and the mixture was gently mixed (by flicking) for 20 seconds, at which point it was added directly to the respective wells of the 6-well plate.
smiles,measurement,setting,value
"CCC/C=C/C=C/C(=O)O[C@H]1/C(=C/C(=O)OC)C[C@H]2C[C@H]([C@@H](C)O)OC(=O)C[C@H](O)C[C@@H]3C[C@H](OC(C)=O)C(C)(C)[C@](O)(C[C@@H]4C/C(=C/C(=O)OC)C[C@H](/C=C/C(C)(C)[C@]1(O)O2)O4)O3 [Bryostatin 1, reference compound]",Ki,PKCα,0.8 nM
same,duration of sustained increase in CD22 surface expression following treatment,"[1]; NALM6 cells, 10 nM for 24 h, then washout and sub-culture",up to 7 days
same,increase in CD22 surface density,"[1]; NALM6 cells, 24 h incubation, Fig. 6",> 2 fold
same,PKC binding affinity in words,PKC; conventional and novel PKC isoforms,single-digit nanomolar
same,upregulation of CD22 surface expression,[2],~ 2 fold
same,upregulation of CD22 surface expression,[3],~ 2 fold
CCCC=CC=CC(=O)OC1C(=CC(=O)OC)CC2CC(C(C)O)OC(=O)CC(O)CC3CC(OC(C)=O)C(C)(C)C(O)(CC4CC(=CC(=O)OC)CC(C=CC(C)(C)C1(O)O2)O4)O3 (centres unmarked) [SUW201],Ki,"PKCα; read-out: Ki PKCα, cell-free, competition with [3H]-PDBu, PS vesicles",0.54 nM
same,upregulation of CD22 surface expression,[2],~ 2 fold
same,upregulation of CD22 surface expression,[3],~ 2 fold
CCCC=CC=CC(=O)OC1C(=CC(=O)OC)CC2CC(C(C)O)OC(=O)CC(O)CC3CC(OC(C)=O)C(C)(C)C(O)(CC4CC(=CC(=O)OCc5ccccc5)CC(C=CC(C)(C)C1(O)O2)O4)O3 (centres unmarked) [SUW219],Ki,"PKCα; cell-free, competition with [3H]-PDBu, PS vesicles, read-out: Ki PKCα",37 nM
same,Ki,PKCδ,25 nM
same,Emax at 1 µM,"PKCδ-GFP fusion protein; CHO-K1, 1000 nM compound, CHO-k1 cells, n = 3, read-out: % Translocation (maximum translocation of PKCδ-GFP to the plasma membrane)",60%
same,minimum effective concentration required to induce translocation of PKC-GFP to the membrane,PKCδ-GFP fusion protein; CHO-k1 cells,1000 nM
same,decrease in affinity to PKC,"PKC; benzyl enoates, (Z) olefin geometry, comparator not stated",~ 2 fold
C=CCOC(=O)/C=C1/C[C@H]2C[C@]3(O)O[C@H](C[C@@H](O)CC(=O)O[C@@H]([C@@H](C)O)C[C@@H]4C/C(=C\C(=O)OC)[C@H](OC(=O)/C=C/C=C/CCC)[C@@](O)(O4)C(C)(C)/C=C/[C@@H](C1)O2)C[C@H](OC(C)=O)C3(C)C [SUW229],Emax at 0.2 µM,"PKCδ-GFP fusion protein; CHO-K1, 200 nM compound, CHO-k1 cells, n = 3, read-out: % Translocation (maximum translocation of PKCδ-GFP to the plasma membrane)",50%
same,minimum effective concentration required to induce translocation of PKC-GFP to the membrane,PKCδ-GFP fusion protein; CHO-k1 cells,200 nM
same,PKC activation dynamics (shape of translocation curve),"PKCδ-GFP fusion protein; Fig. 5c, d",more sustained linear activation dynamics
same,fold induction at 0.001 µM,"[1]; Homo sapiens, NALM-6, 24 h, NALM6 cells at 1 nM relative to DMSO control, 24 h incubation, washout, 24 h sub-culture, n = 3, read-out: Fold increase CD22 expression",2.35
same,upregulation of CD22 surface expression,[2],~ 2 fold
same,upregulation of CD22 surface expression,[3],~ 2 fold
